{"source": "patent US20220380430A1", "about": "“Non-Transgenic Functional Rescue of Neuropeptides” (Worcester Polytechnic Institute, priority 2021, published 2022)", "test_system": "flp-3 lof males", "assay": "Single worm attraction assay (SWAA) to ascr #8 after FLP-3 peptide rescue-by-feeding", "assay_type": "in vivo, C. elegans", "conditions": "flp-3 lof males raised on peptide; in words", "experimental": "The outer forty wells of a 48-well suspension culture plate (Olympus Plastics, Cat #: 25-103) were seeded with 200 μL of standard NGM agar. To prepare the plates for the assay, they were acclimated to room temperature, at which point each well was seeded with 65 μL of OP50 E. coli. The assay plates were then transferred to a 37° C. incubator with the lid tilted for 4 h to allow the bacterial culture to dry on the agar. Once the bacterial culture dried, the lid was replaced the plate was stored at 20° C. until used in the assay. Fifty to sixty L4 worms were segregated by sex and stored at 20° C. for 5 h to overnight to be assayed as young adults. 0.8 μL of either vehicle control or ascaroside #8 was placed in the center of the well corresponding to that condition within the quadrant being tested, following a random block design (FIG. 11A). A single worm was placed in each of the 10 wells to be assayed, and the plate was transferred to a light source and camera and recorded for 15 m. This process was repeated for all four quadrants. Each strain and sex were assayed over five plates assayed on at least three different days. Raw dwell time values were calculated by subtracting the time a worm exited the cue (center of the well in spatial controls), from the time it entered, as in the SRA. This was determined per visit, and the average dwell time was calculated for each animal in the quadrant. Averages of the four-quadrant means were determined per plate, and a minimum of five plates were assayed per strain/condition. The mean raw dwell time across five plates was calculated and used for statistical analyses and graphical display. The average dwell time in the ascaroside was divided by the average dwell time within the vehicle control per plate to generate a fold-change. To transform the data, the log of this fold-change was taken, and the average log(fold-change) was used for statistical analyses and graphical display. […]", "note": "No end group written: not given here.", "data": [{"substance": "NSKLHRGGGRSRTSGSTGSMASHARGSPGLQ-NH2 [SCRAMBLE, scramble control peptide expressed in E. coli DH5α, negative control, reference compound]", "values": [{"measurement": "rescue of attraction to ascr #8 (dwell time, log(fold-change))", "result": "does not affect behavior"}]}]}
